Patent US11224609B2, “Mithramycin derivatives having increased selectivity and anti-cancer activity” (University of Kentucky Research Foundation, priority 2017, dated 2022)
“And” between values parts separate entries of the source, which are not always exact repeats. Equal entries are not always repeated.

Columns and labels:
DU 145 cells = assay: 72 h GI50 assay in DU 145; details: read-out: DU 145 GI50; 72 h growth inhibition
[1] = system: PC-3 (prostate cancer, no ETS translocation) cell line; assay: 72 h growth inhibition (GI50) assay in PC-3; details: read-out: PC-3 Prostate cancer No ETS Translocation GI50; 72 h growth inhibition, PC-3 cells
[2] = system: A-673 Ewing sarcoma cells (EWS-FLI1 Type 1); assay: 72 h GI50 assay in A-673; details: read-out: A-673 EWS-FLI1 Type 1 GI50; 72 h growth inhibition
DMS 114 cells = assay: 72 h GI50 assay in DMS 114; details: read-out: DMS 114 GI50; 72 h growth inhibition
[3] = system: ES-8 Ewing sarcoma cells (EWS-FLI1 Type 2); assay: 72 h GI50 assay in ES-8; details: read-out: ES-8 EWS-FLI1 Type 2 GI50; 72 h growth inhibition
[4] = system: ES-7 Ewing sarcoma cells (EWS-FLI1 Type 4); assay: 72 h GI50 assay in ES-7; details: read-out: ES-7 EWS-FLI1 Type 4 GI50; 72 h growth inhibition
[5] = system: 5838 Ewing sarcoma cells (EWS-ERG); assay: 72 h GI50 assay in 5838; details: for GI50: read-out: 5838 Ewing Sarcoma EWS-ERG GI50, 72 h growth inhibition, 5838 cells; for Ratio of median GI50 Non-Ewing sarcoma cell lines (cf Table 3):5838: selectivity for 5838 cells
[6] = system: VCaP prostate cancer cells (TMPRSS2-ERG); assay: 72 h GI50 assay in VCaP; details: for GI50: read-out: VCaP Prostate Cancer TMPRSS2-ERG GI50, 72 h growth inhibition, VCaP cells; for Ratio of median GI50 Prostate cells lacking TMPRSS2-ERG:VCaP: selectivity for VCaP over other prostate cancer cell lines
[7] = system: TC-32 (Ewing sarcoma, EWS-FLI1 Type 1) cell line; details: for TC-32 Ewing sarcoma EWS-FLI1 Type 1 GI50: 72 h growth inhibition, TC-32 cells; for GI50 ratio PC-3:TC-32: selectivity, GI50 in PC-3 over GI50 in TC-32
HeLa cells = assay: 72 h GI50 assay in HeLa; details: read-out: HeLa GI50; 72 h growth inhibition
[8] = system: Ewing sarcoma cell lines (TC-32, 5838, RD-ES, TC-71, A-673, ES-2, ES-7, ES-8); assay: Median GI50 in panel of Ewing sarcoma cell lines; details: for Ratio of Median GI50 non-Ewing sarcoma:Ewing sarcoma (Selectivity Index): median GI50 non-Ewing panel over Ewing panel; for GI50: read-out: Median GI50 in Ewing sarcoma cell lines, median over 8 Ewing sarcoma cell lines, 72 h; for Selectivity Index ratio Analogues:MTM (1): selectivity index relative to MTM (1)
[9] = system: RD-ES Ewing sarcoma cells (EWS-FLI1 Type 2); assay: 72 h GI50 assay in RD-ES; details: read-out: RD-ES EWS-FLI1 Type 2 GI50; 72 h growth inhibition
LNCaP cells = assay: 72 h GI50 assay in LNCaP; details: read-out: LNCaP GI50; 72 h growth inhibition
A549 cells = assay: 72 h GI50 assay in A549; details: read-out: A549 GI50; 72 h growth inhibition
[10] = system: TC-71 Ewing sarcoma cells (EWS-FLI1 Type 1); details: 72 h growth inhibition
HCT 116 cells = assay: 72 h GI50 assay in HCT 116; details: read-out: HCT 116 GI50; 72 h growth inhibition
[11] = system: ES-2 Ewing sarcoma cells (EWS-FLI1 Type 3); assay: 72 h GI50 assay in ES-2; details: read-out: ES-2 EWS-FLI1 Type 3 GI50; 72 h growth inhibition
PANC-1 cells = assay: 72 h GI50 assay in PANC-1; details: read-out: PANC-1 GI50; 72 h growth inhibition
[12] = system: prostate cell lines lacking TMPRSS2-ERG; assay: Median GI50 in prostate cell lines lacking TMPRSS2-ERG; details: read-out: Median GI50 in prostate cell lines, lacking TMPRSS2-ERG; unit inferred

**Q.** For `COC(=O)C(Cc1c[nH]c2cc(F)ccc12)NC(=O)C(OC)C1Cc2cc3cc(OC4CC(OC5CC(O)C(O)C(C)O5)C(O)C(C)O4)c(C)c(O)c3c(O)c2C(=O)C1OC1CC(OC2CC(OC3CC(C)(O)C(O)C(C)O3)C(O)C(C)O2)C(O)C(C)O1` (stereo not drawn) [Analogue 56], which GI50 (DU 145 cells) is on record?
**A.** 157 nM

**Q.** And the GI50 [1]?
**A.** 187 nM

**Q.** What about the GI50 [2] of the same compound?
**A.** 262 nM

**Q.** And the GI50 (DMS 114 cells)?
**A.** 2470 nM

**Q.** And the GI50 [3]?
**A.** 401 nM

**Q.** And the GI50 [4]?
**A.** 1660 nM

**Q.** And the GI50 [5]?
**A.** 466 nM

**Q.** And the “Ratio of median GI50 Non-Ewing sarcoma cell lines (cf Table 3):5838” value [5]?
**A.** 0.9

**Q.** What about the GI50 [6] of the same compound?
**A.** 319 nM

**Q.** And the “Ratio of median GI50 Prostate cells lacking TMPRSS2-ERG:VCaP” value [6]?
**A.** 0.6

**Q.** And the “TC-32 Ewing sarcoma EWS-FLI1 Type 1 GI50” value [7]?
**A.** 27 nM

**Q.** What about the “GI50 ratio PC-3:TC-32” value [7] of the same compound?
**A.** 6.9

**Q.** And the GI50 (HeLa cells)?
**A.** 1550 nM

**Q.** And the “Ratio of Median GI50 non-Ewing sarcoma:Ewing sarcoma (Selectivity Index)” value [8]?
**A.** 0.9

**Q.** What about the GI50 [8] of the same compound?
**A.** 466 nM

**Q.** And the “Selectivity Index ratio Analogues:MTM (1)” value [8]?
**A.** 0.6

**Q.** What about the GI50 [9] of the same compound?
**A.** 1000 nM

**Q.** And the GI50 (LNCaP cells)?
**A.** 1960 nM

**Q.** What about the GI50 (A549 cells) of the same compound?
**A.** 941 nM

**Q.** And the “TC-71 EWS-FLI1 Type 1 GI50” value [10]?
**A.** 640 nM

**Q.** What about the GI50 (HCT 116 cells) of the same compound?
**A.** 419 nM

**Q.** What about the GI50 [11] of the same compound?
**A.** 3310 nM

**Q.** And the GI50 (PANC-1 cells)?
**A.** 386 nM

**Q.** What about the GI50 [12] of the same compound?
**A.** 187 nM

**Q.** For `COC(=O)C(Cc1c[nH]c2ccccc12)NC(=O)C(OC)C1Cc2cc3cc(OC4CC(OC5CC(O)C(O)C(C)O5)C(O)C(C)O4)c(C)c(O)c3c(O)c2C(=O)C1OC1CC(OC2CC(OC3CC(C)(O)C(O)C(C)O3)C(O)C(C)O2)C(O)C(C)O1` (stereo not drawn) [MTMSA-Trp (3), Mithramycin SA-Tryptophan, reference compound], which GI50 (DU 145 cells) is on record?
**A.** 46 nM

**Q.** What about the GI50 [1] of the same compound?
**A.** 76 nM

**Q.** And the GI50 [2]?
**A.** 81 nM

**Q.** And the GI50 (DMS 114 cells)?
**A.** 151 nM

**Q.** What about the GI50 [3] of the same compound?
**A.** 99 nM

**Q.** And the GI50 [4]?
**A.** 32 nM

**Q.** What about the GI50 [5] of the same compound?
**A.** 6 nM

**Q.** What about the “Ratio of median GI50 Non-Ewing sarcoma cell lines (cf Table 3):5838” value [5] of the same compound?
**A.** 18.2

**Q.** And the GI50 [6]?
**A.** 60 nM

**Q.** What about the “Ratio of median GI50 Prostate cells lacking TMPRSS2-ERG:VCaP” value [6] of the same compound?
**A.** 1.3

**Q.** And the “TC-32 Ewing sarcoma EWS-FLI1 Type 1 GI50” value [7]?
**A.** 16 nM

**Q.** And the “GI50 ratio PC-3:TC-32” value [7]?
**A.** 4.8

**Q.** What about the GI50 (HeLa cells) of the same compound?
**A.** 323 nM

**Q.** And the “Ratio of Median GI50 non-Ewing sarcoma:Ewing sarcoma (Selectivity Index)” value [8]?
**A.** 2.3 and 1.5

**Q.** What about the GI50 [8] of the same compound?
**A.** 47 nM

**Q.** What about the “Selectivity Index ratio Analogues:MTM (1)” value [8] of the same compound?
**A.** 1.5

**Q.** And the GI50 [9]?
**A.** 47 nM

**Q.** And the GI50 (LNCaP cells)?
**A.** 109 nM

**Q.** And the GI50 (A549 cells)?
**A.** 89 nM

**Q.** What about the “TC-71 EWS-FLI1 Type 1 GI50” value [10] of the same compound?
**A.** 57 nM

**Q.** What about the GI50 (HCT 116 cells) of the same compound?
**A.** 30 nM

**Q.** What about the GI50 [11] of the same compound?
**A.** 133 nM

**Q.** And the GI50 (PANC-1 cells)?
**A.** 161 nM

**Q.** What about the GI50 [12] of the same compound?
**A.** 76 nM
